In patent publication US8962263B2, “Methods and compositions for detecting the activation state of multiple proteins in single cells” (The Board of Trustees of the Leland Stanford Junior …, priority 2001, dated 2015):

Key:
Jurkat T cells = test: anti-Fas induced apoptosis in ICAM-2 crosslinked Jurkat cells, annexin-V binding assay; assay type: cell-based, human; details: inhibitor 10 μM 1 hour, anti-Fas 50 ng/ml 8 hours
Procedure: A) ICAM-2, crosslinking induced AKT activity in Jurkat T cells and subsequent phosphorylation of GSK3, FKHR, and AFX as a function of time. Serum starved Jurkat T cells were incubated with either isotype control or anti-human ICAM-2, (10, μg/ml) for the indicated times. AKT kinase activity was determined as described. Immunoblot analysis verified AKT dual phosphorylation, FKHR and GSK3 phosphorylation, and BAD phosphorylation as a function of ICAM-2, crosslinking. B) ICAM-2 crosslinking induces AKT activity in BaF3, pre-B cells. […] ICAM-2, was crosslinked on 106, Jurkat T cells using an ICAM-2, mAb (10, μg/ml) 30, minutes prior to treatment with staurosporine (+) or DMSO vehicle (−). Apoptosis was determined by flow cytometry using annexin-V binding assay. […] Cells were assessed for apoptosis by annexin-V binding assay. […]
Apoptosis was determined either by counting pyknotic nuclei, annexin-V binding by flow cytometry, or TUNEL BrdU staining by flow cytometry as indicated. Apoptosis was induced either by staurosporine (1 μm), treatment with anti-mouse Fas (5 μq/ml Santa Cruz Biotechnology (SCB), anti-human Fas ([…]) as indicated in appropriate experiment, IL-3 withdrawal-(24 hrs) or as indicated. For pyknolic nuclei count, NIH3T3 cells were grown on glass coverslips and assayed for apoptosis. Suspension cells were analyzed by nuclear staining with 25 μM acridine orange/25 μm ethidium bromide or 5 μg/ml Hoechst 33342 (Molecular Probes, Eugene, Oreg.). Apoptosis was identified by the presence of characteristic pyknotic nuclei as described (Jacobson and Raff, 1995). At least 5 individual fields were photographed and counted using a Zeiss axioscope fluorescence microscope. […] The cells were trypsinized and viable cells counted following trypan blue staining. Untreated cells were counted at the time of treatment. % survival represents (number of viable cells post-treatment)/(number of viable cells pretreatment). […] Flow cytometry analysis was performed on a BD FACSCalibur machine with CELLQuest and analyzed using FlowJo software (Tree Star).

p44/42 MAPK = test: intracellular phospho-p44/42 MAPK by flow cytometry in ICAM-2 treated Jurkat cells; assay type: cell-based, human; details: chemical agents 10 μM, EDTA 1 mM; mAbs titrated prior to ICAM-2
Source text: A) Mean fluorescent intensity values (MFI) of ICAM-2-FITC (adhesion) and mAb24-Alexa633, (LFA-1, activation) in treated Jurkat cells (as above). Control unstimulated and/or compound pretreated values were subtracted. B) Top panel: Intracellular phospho-p44/42, MAPK detection as a function of ICAM-2, dose in Jurkat cells by flow cytometry (see Material and Methods). Mean fluorescent intensity values (MFI) were plotted±standard deviation (SD). Bottom panel: ICAM-2, treated Jurkat cells were stained for intracellular phospho-p44/42, MAPK as described above. mAbs to β2, and αL, integrins (10, μg/ml, 10, minutes) were titrated prior to ICAM-2, treatment as indicated and plotted for MFI±SD. C) ICAM-2, induced p44/42, MAPK activity is blocked by β2, and αL, integrin antibodies as determined by a p44/42 MAPK kinase assay. Conditions for induction and inhibition are as described above. Recombinant active p44/42, MAPK served as an internal positive control (denoted by “+”). D) Inhibition and activation profile for intracellular phospho-p44/42, by flow cytometry in the presences of chemical agents (10, μM), EDTA (1, mM), or PMA, ionomycin and ICAM-2, stimulus (as indicated above). MFI values±SD are plotted.
(§1) Intracellular and extracellular staining was performed as described (Perez and Nolan, 2002). Intracellular probes for active kinases were made by conjugating phospho-specific antibodies to the ALEXA FLUOR® dye series as described and used in phospho-protein optimized conditions (Perez and Nolan, 2002). Kinetic analyses was performed by direct application of fixation buffer in time synchronized 96-wells maintained at 37° C. Intracellular actin and microtubule staining was performed using phalloidin-Alexa633 and taxol-Alexa546 dyes (Molecular Probes). Adhesion and clustering assays were performed using ICAM-2-FITC as described in text. LFA-1 activation was assessed by either mAb24-Alexa633 or mAb24-Alexa546 conjugate, surface stained at 37° C. Flow cytometry data are representative of 3 independent experiments of 10^6 cells/sample. 10-50,000 events were collected and manually calibrated on a FACSCalibur™ machine. Data plotted in bar graph format is expressed as geometric mean fluorescence intensity (MFI) and normalized for isotype controls. Log ratios are defined as the MFI of stimulus to the MFI of unstimulated cells. Data was analyzed using Flowjo™ software (Treestar).

ezrin = test: phosphotyrosine-protein based elisa for ezrin tyrosine phosphorylation upon ICAM-2 ligation; assay type: cell-based, human; details: Jurkat cells
Procedure: A) Expression levels of ICAM-2, vary across cell lines of different origins. Quantitative flow cytometry analysis was performed to assess the number of ICAM-2 surface molecules across transformed and untransformed fibroblasts, lymphocytes of T-cell and different B-cell differentiation states and myeloid lineages (see Material and Methods for elaboration). The number of surface molecules/cell is expressed as the mean (bar)+/−SD of triplicate experiments. B) Crosslinking of endogenous ICAM-2, induces ezrin tyrosine phosphorylation and enhanced ICAM-2, interaction. Jurkat cells were crosslinked for ICAM-2 using monoclonal antibody for the indicated times and subjected to immunoprecipitation/immunoblotting as indicated. C) Inhibition of ezrin phosphotyrosine by chemical inhibitors of src and Rho-dependent kinases. D) Ezrin phosphorylation and enhanced interaction with the p85, subunit of PI3K as a function of ICAM-2. Determined as described above. E) PDK-1, activity as a function of ICAM-2, ligation, as described above). F) PI3K and AKT localize to the membrane as a function of ICAM-2, ligation. Membrane/cytosolic fractionation was performed on ICAM-2, ligated Jurkat cells as a function of time and subjected to immunoblotting for PI3K and AKT.
In order to identify upstream kineses capable of tyrosine phosphorylating ezrin as a function of ICAM-2 ligation, we developed a phosphotyrosine-protein based elisa to screen for the inhibition of ezrin tyrosine phosphorylation in vivo by various known inhibitors of protein kineses (Perez and Nolan, manuscript in preparation). […] Given the design of the screen to detect tyrosine residue phosphorylation, we speculate that activation of Rho-dependent processes may be a prerequisite for ezrin to be tyrosine phosphorylated by src (elaborated below).

cell surface LFA-1 = target: T1, cell surface LFA-1 (Homo sapiens, UniProt P20701); test: ICAM-2-FITC surface binding on Jurkat cells by flow cytometry (single cell binding measurements); details: cytochalisin D treated Jurkat cells
T1 construct: within the physiological context of cell surface LFA-1; endogenous in cells; host or cells: Jurkat T cells
Procedure: A) Purified human ICAM-2, from retrovirally transduced NIH3T3, (see materials and methods) was tested for purity, size, and aggregate formation by native gel electrophoresis and gel filtration. Analysis of purified ICAM-2, from two different preps and ICAM2-FC from NSO cells. Molecular weight was calculated using relative distance migration from a molecular weight standard. Concentration was determined using serial dilutions of BSA as a standard. […] B) ICAM-2, ligand binding to cell surface as a function of time. 5×10^6, unstimulated and PMA stimulated (1, μg/ml, 30, min) Jurkat T cells were incubated with ICAM-2-FITC or LFA-1-FITC antibody (1, μg/ml) and subjected to time dependent flow cytometry. Mean fluorescence intensity was plotted per time of a gated homogenous cell population. Flow rate was maintained at 200-300, cells/second, with fluorescence intensity values acquired at 10, millisecond intervals for 1200, seconds. C) Flow cytometric analysis of ICAM-2-FITC and a-LFA-1-FITC surface binding on cytochalisin D treated (10, μM, 30, min) Jurkat cells at 37° C. and 4° C. D) Curve fit analysis of ICAM-2-FITC binding per 10^4, cells. Jurkat cells were incubated with ICAM-2-FITC at 37° C. for 30, min at indicated concentrations in 50, μL volume. Cells were washed 1×, and analyzed for mean fluorescent intensity (MFI) of 10^4, cells. Percent ICAM-2-FITC bound was calculated from the following equation: 100×[(MFI[×]−MFIunstained)/(MFI[saturated]−MFIunstained)] where [×]=ICAM-2-FITC concentration and [saturated]=concentration that saturated binding. Values were fit to the equation Y=m1*M0/(m2+M0) (see materials and methods).
Full length ICAM2 cDNA was obtained from Jurkat cells and cloned into retroviral vector PBM-Z-IN at the BamHI/Sal1 site as described (Perez et al., 2002). Human ICAM-2 was overexpressed in NIH3T3 cells by retroviral infection and harvested by immunoaffinity chromatography. ICAM-2 was affinity purified using a two step lysing procedure and subsequent purification on an anti-ICAM-2 solid support. […] Batch lysate of harvested supernatant was performed (4° C., for 2 hrs), and washed 4 times in buffer C (0.1% Tween-20, PBS pH 7.4). ICAM-2 protein was eluted by 4.5 M NaCl (in Tris pH 6.8), dialyzed overnight (in PBS pH 7.4, 0.001% azide, 0.01% glycerol, 4° C.), concentrated using size exclusion spin chromatography and stabilized using 0.01% glycerol. Anti-ICAM-2 solid support was re-equilibrated in buffer C, stored in 0.001% thimerosol and re-used up to 3 times. Purity was >98% as assessed by coomasie gel. […] Gel imaging was performed on a VersaDoc machine (Biorad) and analyzed using Quantity One quantitation software (Biorad). […]

LFA-1 = LFA-1 activation by mAb24-Alexa633 staining, flow cytometry; assay type: cell-based, human; details: Jurkat cells; agents 10 μM 30 min, PMA 1 μg/ml, prior to ICAM-2 10 μg/ml 30 min
Procedure: A) Confocal microscopy of actin and microtubule architecture upon ICAM-2, stimulus (10, μg/ml, 30, min) in Jurkat cells. Actin was stained by phalloidin-alexa633, and tubulin by taxol-alexa546. Inserts display enlarged cell image of representative treatment B) Flow cytometric staining for actin and microtubules as described above. C) Left: Fluorescence topography analysis of ICAM-2-FITC (1 μg/ml, time as indicated) surface distribution. Intensity color gradient depicts high and low fluorescent intensity values. Right: Confocal microscopy of ICAM-2-FITC surface binding (10 μg/ml, 30, min) and anti-β2-alexa568, (clone CTB104). D) Staining for ICAM-2-FITC surface binding (fluorescence intensity) and surface distribution (fluorescence pulse) in cytochalisin D treated Jurkat cells at 37° C. and 4° C. by flow cytometry. E) Values for ICAM-2-FITC fluorescence intensity per time-of-flight per cell as described in text. F) Flow cytometric staining for LFA-1 activation by mAb24-alexa633. Stimuli as indicated (10, μM, 30, min), PMA (1, μg/ml) prior to ICAM-2, stimulation (10, μg/ml, 30, min). Staining was performed at 37° C. G) Mean fluorescence intensity (MFI) values of mAb24-633, and ICAM-2, cluster values, computed as described above, as a function of time.
as §1

T1 sequence (P20701 26-1170): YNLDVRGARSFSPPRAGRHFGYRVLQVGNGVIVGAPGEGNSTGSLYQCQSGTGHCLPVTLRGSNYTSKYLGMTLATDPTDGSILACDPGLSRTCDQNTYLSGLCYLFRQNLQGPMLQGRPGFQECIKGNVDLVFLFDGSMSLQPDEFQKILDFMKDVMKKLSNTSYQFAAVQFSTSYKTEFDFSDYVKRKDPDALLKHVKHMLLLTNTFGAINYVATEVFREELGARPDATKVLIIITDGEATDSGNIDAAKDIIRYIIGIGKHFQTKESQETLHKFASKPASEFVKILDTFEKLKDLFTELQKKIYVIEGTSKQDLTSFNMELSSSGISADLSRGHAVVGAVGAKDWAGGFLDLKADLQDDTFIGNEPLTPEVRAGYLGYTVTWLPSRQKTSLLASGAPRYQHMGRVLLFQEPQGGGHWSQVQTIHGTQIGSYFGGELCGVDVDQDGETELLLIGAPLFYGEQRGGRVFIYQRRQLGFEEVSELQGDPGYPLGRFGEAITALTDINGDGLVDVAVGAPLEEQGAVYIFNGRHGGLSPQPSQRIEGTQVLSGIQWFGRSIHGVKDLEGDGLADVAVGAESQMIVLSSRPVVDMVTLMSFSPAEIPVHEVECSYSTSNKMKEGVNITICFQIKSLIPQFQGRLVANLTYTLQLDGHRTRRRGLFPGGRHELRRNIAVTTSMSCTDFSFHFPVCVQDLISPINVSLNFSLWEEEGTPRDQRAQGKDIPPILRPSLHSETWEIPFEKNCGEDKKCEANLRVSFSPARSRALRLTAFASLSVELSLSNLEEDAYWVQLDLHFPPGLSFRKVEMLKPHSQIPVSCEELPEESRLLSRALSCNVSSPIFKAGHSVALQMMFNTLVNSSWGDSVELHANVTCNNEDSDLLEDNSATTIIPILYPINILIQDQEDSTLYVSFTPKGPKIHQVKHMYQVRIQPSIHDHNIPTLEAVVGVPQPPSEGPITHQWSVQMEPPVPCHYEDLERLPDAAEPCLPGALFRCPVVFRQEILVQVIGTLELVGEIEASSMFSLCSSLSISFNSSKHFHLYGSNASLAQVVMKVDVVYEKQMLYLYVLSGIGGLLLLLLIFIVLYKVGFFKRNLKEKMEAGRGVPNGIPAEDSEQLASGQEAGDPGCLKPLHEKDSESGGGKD
T1 sequence (P05107 23-769 partner): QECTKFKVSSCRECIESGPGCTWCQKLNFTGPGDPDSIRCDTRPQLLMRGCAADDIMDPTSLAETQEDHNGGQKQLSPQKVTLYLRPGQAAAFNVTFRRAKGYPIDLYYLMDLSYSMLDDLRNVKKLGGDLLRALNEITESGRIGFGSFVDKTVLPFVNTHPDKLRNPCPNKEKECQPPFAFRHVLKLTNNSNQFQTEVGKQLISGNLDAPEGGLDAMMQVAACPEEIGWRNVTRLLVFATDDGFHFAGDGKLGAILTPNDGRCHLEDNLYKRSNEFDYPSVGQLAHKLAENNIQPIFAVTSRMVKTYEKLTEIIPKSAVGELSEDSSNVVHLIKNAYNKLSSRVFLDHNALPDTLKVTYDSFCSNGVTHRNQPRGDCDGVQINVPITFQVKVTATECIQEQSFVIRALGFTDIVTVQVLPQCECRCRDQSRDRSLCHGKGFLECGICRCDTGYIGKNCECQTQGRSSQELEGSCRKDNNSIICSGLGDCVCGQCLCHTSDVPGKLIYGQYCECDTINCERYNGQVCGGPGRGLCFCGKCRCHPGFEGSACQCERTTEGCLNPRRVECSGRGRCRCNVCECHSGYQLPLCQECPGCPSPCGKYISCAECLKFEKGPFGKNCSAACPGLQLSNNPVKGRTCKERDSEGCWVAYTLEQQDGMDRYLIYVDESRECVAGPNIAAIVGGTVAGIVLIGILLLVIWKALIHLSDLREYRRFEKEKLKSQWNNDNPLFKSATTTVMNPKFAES
Procedure for CD19+ human B cells: Apoptosis was measured by annexin-V binding detected by flow cytometry, and gated for CD19+, cells. […] Apoptosis was measured by annexin-V binding assay.
Antibody cross-linking experiments were performed using mAbs to anti-ICAM-1, anti-ICAM-2, anti-ICAM-3, anti-CD43, or anti-CD44 that recognizes the N-terminal region (extracellular domain) at 10 μg/ml. Spin dialysis (Biorad) was used for buffer exchange of azide containing antibodies (0.01%) to phosphate buffered saline buffer pH 7.4. Anti-mouse IgG (Sigma) was used as a control antibody in cross-linking experiments. 1×10^6 Jurkat, 1×10^6 BaF3, or 1×10^7 PBMC cells were serum starved for 4 hours respectively (except PBMC). Cells were incubated with either mAb (10 μg/ml) or mouse IgG (10 μg/ml) at 37° C. for the indicated time. Time points began post serum starvation to attenuate most of the signaling pathways or as indicated. […] Cells extracts were taken and subjected to either immunoprecipitation or immunoblotting were appropriate. Primary cells were subjected to apoptotic treatment followed by preparation for flow cytometry. GTPγS was made cell permeant by pre-incubating compound with Fugene (Roche Biochemicals) in a 1:4 molar ratio for 30 minutes at 25° C. prior to being applied to cells.

Molecule | ICAM-2 crosslinking protection against Fas induced apoptosis (Jurkat T cells) | apoptosis in primary cells on incubation with compound (CD19+ human B cells) | effect on ICAM-2 induced p44/42 MAPK phosphorylation (p44/42 MAPK) | tyrosine phosphorylation of ezrin (ezrin) | LFA-1 receptor clustering and ICAM-2 binding (cell surface LFA-1) | LFA-1 activation (mAb24 binding) (LFA-1)
Nc1nc2c(ncn2[C@@H]2O[C@H](COP(=O)(O)OP(=O)(O)OP(O)(O)=S)[C@@H](O)[C@H]2O)c(=O)[nH]1 [GTPγS] | abrogated | induced apoptosis |  |  |  | 
CO[C@H]1[C@@H](OC)C[C@H](C)[C@@H](OC)C2=CC(=O)C=C(NC(=O)/C(C)=C/C=C\[C@H](OC)[C@@H](OC(N)=O)/C(C)=C/[C@@H]1C)C2=O [herbimycin A] | abrogated | induced apoptosis | no effect | inhibit tyrosine phosphorylation of ezrin |  | 
cytochalisin D |  |  | diminished |  | enhanced LFA-1 receptor clustering and subsequent ICAM-2 binding | attenuated
